{"source": "patent US12338483B2", "about": "“Compositions and methods for logic-gated profiling of biologic activity” (Georgia Tech Research Corporation, priority 2019, dated 2025)", "key": {"[1]": {"biological_target": "T1, GzmB and Tobacco Etch Virus protease (Homo sapiens, UniProt P10144)", "T1 construct": "Tobacco Etch Virus protease", "T1 sequence (P10144 21-247)": "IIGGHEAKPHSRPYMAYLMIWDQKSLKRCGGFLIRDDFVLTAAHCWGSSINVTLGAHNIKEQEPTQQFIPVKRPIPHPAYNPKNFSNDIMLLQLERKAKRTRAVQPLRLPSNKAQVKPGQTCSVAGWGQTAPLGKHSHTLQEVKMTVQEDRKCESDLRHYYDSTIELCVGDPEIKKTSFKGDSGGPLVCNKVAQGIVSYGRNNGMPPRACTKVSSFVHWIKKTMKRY", "test": "Incubation of GzmB/MMP AND-gate sensor with GzmB and Tobacco Etch Virus protease", "assay_type": "biochemical", "settings": "sensor 5 μM; 300 nM GzmB and 100 nM protease; 1.5 hours; FIG. 21", "protocol": "(§1) Next the protease activity sensor was incubated with GzmB and either MMP8 or one of two viral proteases (West Nile Virus NS3 protease and Tobacco Etch Virus protease) to show the AND-gate sensor can distinguish immune activity in tumors from viral infections (FIG. 21). The sensor produced low signals with the viral proteases compared to MMP8.\n(§2) FIGS. 20-21 show mean change in fluorescence (7D, kinetic trace) after incubation of GzmB/MMP AND-gate sensor (5 μM) with (7C) 300 nM GzmB and/or 100 nM different MMP's or (7D) 300 nM GzmB and 100 nM West Nile Virus NS3 protease, Tobacco Etch Virus protease, or MMP8 for 1.5 hours, n=3."}, "[2]": {"system": "GzmB and MMPs", "test": "Cleavage assay of GzmB/MMP AND-gate sensor with each MMP with and without GzmB", "assay_type": "biochemical", "settings": "sensor 5 μM; 300 nM GzmB and/or 100 nM different MMPs; 1.5 hours; all three MMPs; FIG. 20", "protocol": "Then a cleavage assay was performed with the GzmB/MMP AND-gate sensor, testing the probe with each MMP with and without GzmB (FIG. 20).\nas §2"}, "[3]": {"biological_target": "T2, GzmB (Homo sapiens, UniProt P10144) and West Nile Virus NS3 protease", "T2 construct": "West Nile Virus NS3 protease", "T2 sequence (P10144 21-247)": "as above", "test": "Incubation of GzmB/MMP AND-gate sensor with GzmB and West Nile Virus NS3 protease", "assay_type": "biochemical", "settings": "sensor 5 μM; 300 nM GzmB and 100 nM protease; 1.5 hours; FIG. 21", "protocol": "as §1, §2"}, "[4]": {"system": "GzmB and Thrb", "test": "Cleavage assay of GzmB/Thrb AND-gate sensor with GzmB and/or Thrb", "assay_type": "biochemical", "protocol": "Next, the AND-gate logic protease sensor was tested in a cleavage assay.\nThus, the presence of even small amounts of a protease can be detected if the other protease is also present. FIGS. 13-14 show: mean change in fluorescence after incubation of the AND-gate sensor with (FIG. 13) 9.2 nM Thrb and varying concentrations of GzmB (0-150 nM) or (FIG. 14) 300 nM GzmB and varying concentrations of Thrb (0-4.6 nM) for 2 hours, n=2. For all fluorescent readings, samples were excited at 485 nm, emission was measured at 528 nm, and samples were incubated at 37° C."}, "[5]": {"biological_target": "T3, GzmB in supernatant of OT1 T-cell co-incubation with EL4 or EG7-OVA cells, and Thrb (UniProt P00734+P04187)", "T3 construct": "using the supernatant as a GzmB source and adding Thrb; endogenous in cells; host or cells: T cells from OT1 mice co-incubated with EL4 or EG7-OVA cells; supernatant used at 10%", "T3 sequence (P04187 21-247, one chain of several)": "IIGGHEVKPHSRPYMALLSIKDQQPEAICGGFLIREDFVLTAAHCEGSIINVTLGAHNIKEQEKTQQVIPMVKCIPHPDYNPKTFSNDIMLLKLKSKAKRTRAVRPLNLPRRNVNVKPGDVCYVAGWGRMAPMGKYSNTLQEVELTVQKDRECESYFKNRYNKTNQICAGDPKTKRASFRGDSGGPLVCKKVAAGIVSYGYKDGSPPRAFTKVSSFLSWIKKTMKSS", "test": "Cleavage assay with supernatant of transgenic T-cell killing assay as GzmB source, plus Thrb", "assay_type": "cell-based, mice", "settings": "nanoparticle-conjugated sensor 1 μM; 10% supernatant from EL4 and EG7-OVA co-incubation and/or 3.7 Thrb; 12 hours; FIG. 17", "protocol": "FIGS. 15-17 show an example of the disclosed AND-gate protease activity sensors used with a living system. The sensors were evaluated in an in vitro transgenic T-cell killing assay in which cytotoxic T-cells taken from OT1 mice were co-incubated with target cells EL4 and EG7-OVA (FIG. 15). OT1 T cells can recognize the OVA antigen and mount an immune response, so the T-cells would theoretically respond to the EG7-OVA cells but not to the EL4 cells. Supernatant was harvested from the co-incubation and quantified the immune response by GzmB secretion using ELISA (FIG. 16). The concentration was measured after overnight co-incubation at 37° C. with target cells, as measured by ELISA, n=3. It was confirmed that co-incubation of OT1 cells with EG7-OVA cells, but not with EL4 cells, increases GzmB secretion by OT1 cells.\nThen we cleavage assays were run with the AND-gate sensors, using the supernatant as a GzmB source and adding Thrb. […] Data for EL4 and EG7-OVA were normalized by subtraction of trace using OT1-only supernatant, and data for EL4+Thrb and EG7-OVA+Thrb were normalized by subtraction of trace using OT1-only supernatant and Thrb."}}, "note": "Bridge positions count the residues as written; N and C are the ends. Square brackets hold non-standard residues; d marks the D form. Ends that are not written are not given here."}
{"substance": "GzmB/MMP AND-gate sensor: AND-gate protease activity sensor (SEQ ID NO: 2) that probes both GzmB and MMPs (CGIEFDSGGKGAPAALRAAGGCK; MOD_RES (11)..(11) D-Gly)", "values": [{"measurement": "signal with GzmB and Tobacco Etch Virus protease compared to MMP8", "setting": "[1]", "result": "low signals"}, {"measurement": "change of fluorescent signal on addition of GzmB to MMPs", "setting": "[2]", "result": "drastically increased the fluorescent signal by over two-fold"}, {"measurement": "signal with GzmB and West Nile Virus NS3 protease compared to MMP8", "setting": "[3]", "result": "low signals"}]}
{"substance": "GzmB/Thrb AND-gate sensor: Disulfide-cyclized peptide (SEQ ID NO: 1) with DABCYL quencher, 5-FAM reporter, GzmB and Thrb substrates and an azide for click conjugation (KCGIEFDSGGKGG[dF]PRSGGGCK; disulfide 2-21 (inferred); also: DABCYL quencher, 5-FAM reporter, azide for click conjugation)", "values": [{"measurement": "sensitivity of fluorescence to protease concentration", "setting": "[4]; 9.2 nM Thrb with 0-150 nM GzmB, or 300 nM GzmB with 0-4.6 nM Thrb, 2 hours, FIGS. 13-14", "result": "very sensitive to small changes in the concentration of both proteases even in the nanomolar range"}, {"measurement": "fluorescent signal, both proteases present together", "setting": "[4]; nanoparticle-conjugated sensor 1 μM, 125 nM GzmB and 3.7 nM Thrb, 12 hours, FIG. 12", "result": "high fluorescent signal"}, {"measurement": "fluorescent signal, either protease present alone", "setting": "[4]; nanoparticle-conjugated sensor 1 μM, 125 nM GzmB or 3.7 nM Thrb, 12 hours, FIG. 12", "result": "not when either protease is present alone"}, {"measurement": "signal (mean change in fluorescence) with T-cell co-incubation supernatant", "setting": "[5]", "result": "high signal was attained only when Thrb was added to the GzmB-high OT1/EG7-OVA supernatant"}]}
